Activity calls are given as the source filed them.
Key:
[1] = target: T1, Sphingosine 1-phosphate receptor 4 (Homo sapiens, UniProt O95977); assay: Fluorescence dose response cell-based high throughput screening assay for antagonists of the Sphingosine 1-Phosphate Receptor 4 (S1P4). [Related pubchem assays: 1524 (Confirmation in triplicates.), 1510 (Primary screen.)]; type: functional
T1 sequence (O95977 whole entry): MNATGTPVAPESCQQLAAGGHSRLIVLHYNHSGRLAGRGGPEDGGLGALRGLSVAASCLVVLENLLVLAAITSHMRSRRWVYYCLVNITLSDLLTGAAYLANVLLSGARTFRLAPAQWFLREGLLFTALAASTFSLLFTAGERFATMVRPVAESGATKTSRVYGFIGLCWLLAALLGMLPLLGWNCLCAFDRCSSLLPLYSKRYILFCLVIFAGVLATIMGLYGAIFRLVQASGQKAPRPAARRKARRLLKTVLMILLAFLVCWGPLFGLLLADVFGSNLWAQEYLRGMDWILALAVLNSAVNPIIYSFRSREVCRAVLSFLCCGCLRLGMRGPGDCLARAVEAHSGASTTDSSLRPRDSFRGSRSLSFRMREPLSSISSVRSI

[2] = inhibitors of firefly luciferase expression or activity, dose response, H4 neuroglioma cells, luminescence (AID 1990); type: functional, cell-based
[3] = target: Photoreceptor-specific nuclear receptor (Homo sapiens, UniProt Q9Y5X4); type: functional;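 further: potency for compounds that break the NR2E3 corepressor complex and count as activators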
Chain of Photoreceptor-specific nuclear receptor (Q9Y5X4 whole entry): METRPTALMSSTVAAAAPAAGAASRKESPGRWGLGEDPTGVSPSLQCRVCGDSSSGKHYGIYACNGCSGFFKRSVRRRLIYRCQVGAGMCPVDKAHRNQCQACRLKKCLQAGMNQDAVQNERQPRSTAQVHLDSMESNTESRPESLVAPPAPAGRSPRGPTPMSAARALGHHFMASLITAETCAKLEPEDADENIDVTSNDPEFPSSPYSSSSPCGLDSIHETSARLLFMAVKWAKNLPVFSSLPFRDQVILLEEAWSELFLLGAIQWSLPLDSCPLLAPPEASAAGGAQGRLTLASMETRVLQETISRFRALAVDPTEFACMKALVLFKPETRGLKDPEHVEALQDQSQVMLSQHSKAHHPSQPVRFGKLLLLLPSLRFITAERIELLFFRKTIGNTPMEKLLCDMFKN

[4] = target: Transitional endoplasmic reticulum ATPase (Homo sapiens, UniProt P55072); assay: p97 ATPase inhibitors, dose response, biochemical (AID 1534)
Chain of Transitional endoplasmic reticulum ATPase (P55072 whole entry): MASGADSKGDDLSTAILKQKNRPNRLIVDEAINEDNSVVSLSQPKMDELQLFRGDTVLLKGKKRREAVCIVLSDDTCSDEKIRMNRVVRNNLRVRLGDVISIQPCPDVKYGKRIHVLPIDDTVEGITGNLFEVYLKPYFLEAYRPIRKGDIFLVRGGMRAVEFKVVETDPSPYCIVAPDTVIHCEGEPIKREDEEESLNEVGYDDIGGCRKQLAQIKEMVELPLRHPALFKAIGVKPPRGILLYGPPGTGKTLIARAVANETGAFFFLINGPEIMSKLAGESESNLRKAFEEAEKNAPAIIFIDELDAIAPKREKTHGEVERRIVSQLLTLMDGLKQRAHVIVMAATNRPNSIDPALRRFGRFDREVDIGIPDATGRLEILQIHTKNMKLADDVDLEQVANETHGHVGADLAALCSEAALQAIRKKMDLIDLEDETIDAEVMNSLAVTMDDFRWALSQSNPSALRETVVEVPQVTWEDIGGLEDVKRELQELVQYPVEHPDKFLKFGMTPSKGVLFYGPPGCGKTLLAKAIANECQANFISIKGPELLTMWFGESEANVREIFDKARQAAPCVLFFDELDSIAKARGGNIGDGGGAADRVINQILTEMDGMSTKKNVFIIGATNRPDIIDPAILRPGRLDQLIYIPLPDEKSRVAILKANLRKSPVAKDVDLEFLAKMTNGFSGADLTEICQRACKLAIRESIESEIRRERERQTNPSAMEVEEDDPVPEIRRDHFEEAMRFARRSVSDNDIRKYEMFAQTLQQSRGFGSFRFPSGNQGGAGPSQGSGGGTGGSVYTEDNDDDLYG

[5] = Luminescence Cell-Based Dose Response HTS to Identify Inhibitors of 5'UTR Stem-Loop Driven Prion Protein mRNA Translation in H4 Neuroglioblastoma Cells. [Related pubchem assays: 1827 (Project Summary), 1813 (Primary HTS)]; type: functional
[6] = target: ATP-dependent molecular chaperone HSP82 (Candida albicans (strain WO-1) (Yeast), UniProt C4YTQ8); assay: loss of DOC-induced GRE-beta-galactosidase reporter signal, dose response, Hsp90 inhibitor project, S. cerevisiae, luminescence (AID 2400); type: functional, cell-based;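 further: beta-galactosidase luminescence from glucocorticoid response element reporter as proxy for Hsp90 function; inhibitor potency where signal loss means Hsp90 inhibition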
Chain of ATP-dependent molecular chaperone HSP82 (C4YTQ8 whole entry): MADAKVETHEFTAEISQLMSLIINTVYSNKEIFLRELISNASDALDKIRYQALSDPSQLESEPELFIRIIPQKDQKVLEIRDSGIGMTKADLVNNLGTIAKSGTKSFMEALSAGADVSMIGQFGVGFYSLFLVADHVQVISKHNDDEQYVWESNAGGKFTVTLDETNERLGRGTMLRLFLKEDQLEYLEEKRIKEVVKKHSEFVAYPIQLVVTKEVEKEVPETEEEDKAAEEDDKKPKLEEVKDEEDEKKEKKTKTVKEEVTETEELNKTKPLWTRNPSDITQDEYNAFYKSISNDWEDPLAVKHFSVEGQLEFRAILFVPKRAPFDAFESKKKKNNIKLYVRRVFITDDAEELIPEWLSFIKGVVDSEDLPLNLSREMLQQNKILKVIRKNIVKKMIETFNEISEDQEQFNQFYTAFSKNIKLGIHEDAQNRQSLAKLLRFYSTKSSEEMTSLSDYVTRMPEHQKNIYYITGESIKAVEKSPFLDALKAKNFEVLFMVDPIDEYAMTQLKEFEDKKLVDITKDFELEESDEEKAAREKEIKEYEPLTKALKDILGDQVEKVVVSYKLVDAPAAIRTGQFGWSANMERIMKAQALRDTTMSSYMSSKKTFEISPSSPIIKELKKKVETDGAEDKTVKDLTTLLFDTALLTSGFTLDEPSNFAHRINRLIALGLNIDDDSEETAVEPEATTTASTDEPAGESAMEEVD

[7] = NIH-3T3 fibroblast cytotoxicity, dose response, cytotoxicity control, cell-based, fluorescence, Alamar Blue, secondary assay (AID 2327); type: functional;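 further: NIH-3T3 mouse fibroblasts cultured with fluconazole at 8 µg/mL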
[8] = HepG2 cell cytotoxicity, dose response, cytotoxicity control for Shn3 inhibitor project, CellTiter-Glo, cherry-picked (AID 624134); type: functional, cell-based
HEK293 = assay: SAR Analysis of small molecule inhibitors of T-cell specific antigen receptor-induced NF-kB activation in a HEK-293T cell line using a luminescence assay - Set 2. [Related pubchem assays (depositor defined):AID435003, AID435012, AID489026]; type: functional, cell-based; details: Homo sapiens
cells = type: functional, cell-based
[9] = Vero E6 cell cytotoxicity, dose response, cytotoxicity control for non-replicating M. tuberculosis project, secondary assay (AID 492998); type: functional, VeroE6; details: Vero C1008
BJ = assay: cells; type: functional, cell-based; details: Homo sapiens
[10] = THP-1 cell cytotoxicity, dose response, cytotoxicity control for non-replicating M. tuberculosis project (AID 489025); type: functional
Hexokinase HKDC1 = target: T2, Hexokinase HKDC1 (Homo sapiens, UniProt Q2TB90); assay: HKDC1 hexokinase activators, dose response, biochemical, W721R variant (AID 504730); type: functional
T2 sequence (Q2TB90 whole entry): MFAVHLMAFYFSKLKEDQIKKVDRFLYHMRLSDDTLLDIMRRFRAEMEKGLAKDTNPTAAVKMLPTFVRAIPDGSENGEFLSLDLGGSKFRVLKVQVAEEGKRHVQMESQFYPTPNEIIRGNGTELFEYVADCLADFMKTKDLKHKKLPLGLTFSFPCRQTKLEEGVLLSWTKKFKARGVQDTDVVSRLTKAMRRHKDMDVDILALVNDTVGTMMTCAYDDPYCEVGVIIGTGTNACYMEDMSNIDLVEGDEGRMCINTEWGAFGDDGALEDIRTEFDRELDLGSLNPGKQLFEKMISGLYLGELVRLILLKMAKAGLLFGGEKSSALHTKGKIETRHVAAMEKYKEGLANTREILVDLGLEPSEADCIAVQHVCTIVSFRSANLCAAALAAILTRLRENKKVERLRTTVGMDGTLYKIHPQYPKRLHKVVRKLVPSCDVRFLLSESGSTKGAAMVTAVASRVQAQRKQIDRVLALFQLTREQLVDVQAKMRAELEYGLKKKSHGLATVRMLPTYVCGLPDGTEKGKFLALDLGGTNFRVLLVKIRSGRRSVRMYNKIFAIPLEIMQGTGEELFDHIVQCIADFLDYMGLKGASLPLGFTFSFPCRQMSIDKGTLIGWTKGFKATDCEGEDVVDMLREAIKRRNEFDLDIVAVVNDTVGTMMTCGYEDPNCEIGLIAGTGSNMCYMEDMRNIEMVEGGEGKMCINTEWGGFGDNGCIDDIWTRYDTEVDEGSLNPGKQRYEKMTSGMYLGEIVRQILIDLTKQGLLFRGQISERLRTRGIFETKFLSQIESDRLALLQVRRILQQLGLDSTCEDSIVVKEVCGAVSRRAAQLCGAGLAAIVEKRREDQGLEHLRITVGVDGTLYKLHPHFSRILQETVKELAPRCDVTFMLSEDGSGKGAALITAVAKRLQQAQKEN

Caspase-6 = target: T3, Caspase-6 (Homo sapiens, UniProt P55212); assay: human caspase-6 inhibitors, dose response, biochemical, VEID-R110 fluorescence, cherry-pick (AID 720632)
T3 sequence (P55212 whole entry): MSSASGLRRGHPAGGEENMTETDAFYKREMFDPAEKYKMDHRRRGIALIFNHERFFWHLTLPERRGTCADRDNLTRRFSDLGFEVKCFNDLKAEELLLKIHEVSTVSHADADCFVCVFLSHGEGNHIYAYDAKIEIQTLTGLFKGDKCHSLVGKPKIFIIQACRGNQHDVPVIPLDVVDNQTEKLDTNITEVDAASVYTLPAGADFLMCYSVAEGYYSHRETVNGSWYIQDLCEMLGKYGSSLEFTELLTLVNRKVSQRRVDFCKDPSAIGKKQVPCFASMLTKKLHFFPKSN

[11] = target: DNA (cytosine-5)-methyltransferase 1 (Homo sapiens, UniProt P26358); assay: DNMT1 methyltransferase inhibitors, confirmation, biochemical, fluorescent molecular beacon (AID 602386); type: functional
Chain of DNA (cytosine-5)-methyltransferase 1 (P26358 whole entry): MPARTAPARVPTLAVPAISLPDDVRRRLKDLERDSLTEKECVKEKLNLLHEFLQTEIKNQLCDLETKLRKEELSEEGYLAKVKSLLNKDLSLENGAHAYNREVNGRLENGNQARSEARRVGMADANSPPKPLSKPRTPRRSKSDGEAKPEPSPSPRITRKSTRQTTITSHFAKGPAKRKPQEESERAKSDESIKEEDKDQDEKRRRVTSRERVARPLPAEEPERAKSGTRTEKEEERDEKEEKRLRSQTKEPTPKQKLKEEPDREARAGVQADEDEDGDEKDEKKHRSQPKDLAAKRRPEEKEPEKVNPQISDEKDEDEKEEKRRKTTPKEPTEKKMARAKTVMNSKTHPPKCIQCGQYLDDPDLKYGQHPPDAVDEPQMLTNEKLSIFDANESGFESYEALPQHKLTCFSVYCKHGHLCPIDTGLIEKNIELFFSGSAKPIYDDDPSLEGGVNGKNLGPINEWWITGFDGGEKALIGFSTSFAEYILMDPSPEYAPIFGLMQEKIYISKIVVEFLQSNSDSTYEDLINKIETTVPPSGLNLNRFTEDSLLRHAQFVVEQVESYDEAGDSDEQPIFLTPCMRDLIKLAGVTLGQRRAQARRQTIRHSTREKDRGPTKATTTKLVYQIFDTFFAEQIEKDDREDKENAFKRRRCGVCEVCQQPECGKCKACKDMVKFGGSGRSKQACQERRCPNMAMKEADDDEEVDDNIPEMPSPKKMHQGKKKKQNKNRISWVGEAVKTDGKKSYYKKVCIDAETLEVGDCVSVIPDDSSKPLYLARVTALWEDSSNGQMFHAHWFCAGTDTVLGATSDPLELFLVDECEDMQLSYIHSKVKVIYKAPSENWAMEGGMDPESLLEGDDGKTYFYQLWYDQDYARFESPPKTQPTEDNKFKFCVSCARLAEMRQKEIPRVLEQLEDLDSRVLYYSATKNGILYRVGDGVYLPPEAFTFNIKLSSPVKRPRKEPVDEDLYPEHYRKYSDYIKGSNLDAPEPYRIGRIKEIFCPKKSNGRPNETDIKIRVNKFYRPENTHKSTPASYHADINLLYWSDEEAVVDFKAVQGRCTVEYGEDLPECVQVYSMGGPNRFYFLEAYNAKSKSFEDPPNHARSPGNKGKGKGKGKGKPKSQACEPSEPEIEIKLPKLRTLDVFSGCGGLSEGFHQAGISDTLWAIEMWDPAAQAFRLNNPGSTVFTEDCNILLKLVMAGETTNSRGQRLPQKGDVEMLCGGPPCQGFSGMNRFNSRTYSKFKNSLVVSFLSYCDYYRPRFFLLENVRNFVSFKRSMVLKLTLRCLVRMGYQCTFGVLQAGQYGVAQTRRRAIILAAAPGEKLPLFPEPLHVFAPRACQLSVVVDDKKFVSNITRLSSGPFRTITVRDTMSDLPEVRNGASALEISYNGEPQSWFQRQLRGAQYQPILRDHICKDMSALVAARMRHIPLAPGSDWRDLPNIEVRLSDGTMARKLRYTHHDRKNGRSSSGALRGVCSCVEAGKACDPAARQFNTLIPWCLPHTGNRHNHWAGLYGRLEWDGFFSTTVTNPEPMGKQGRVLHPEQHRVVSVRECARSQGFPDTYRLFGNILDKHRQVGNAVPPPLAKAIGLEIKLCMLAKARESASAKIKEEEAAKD

[12] = target: T4, Sentrin-specific protease 8 (Homo sapiens, UniProt Q96LD8); assay: SENP8 protease inhibitors, SAR follow-up, biochemical, luminescence (AID 504501); type: functional
T4 sequence (Q96LD8 whole entry): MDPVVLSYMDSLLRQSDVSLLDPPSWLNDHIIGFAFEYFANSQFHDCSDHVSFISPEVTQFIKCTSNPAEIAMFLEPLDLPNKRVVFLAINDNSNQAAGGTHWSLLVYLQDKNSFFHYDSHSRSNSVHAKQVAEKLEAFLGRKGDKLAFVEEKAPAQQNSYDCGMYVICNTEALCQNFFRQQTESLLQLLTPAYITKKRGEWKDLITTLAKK

## Cn1nc(-c2ccc(Cl)cc2)nc2c(=O)n(C)c(=O)nc1-2
[1]
  IC50: 0.396 µM (active)
[2]
  EC50: 5.59 µM (inconclusive)
[3]
  IC50: > 39.8 µM (not active)
[4]
  IC50: > 50 µM (not active)
[5]
  EC50: > 120 µM (not active)

## COc1ccc(C(NC(=O)C(C)C)c2ccc3cccnc3c2O)cc1 (configuration not stated)
[6]
  EC50: 52.4 µM (active)
[7]
  EC50: 40.1 µM (active)
[8]
  AC50: 1.27 µM (active)
HEK293
  IC50: 3.15 µM (active)
cells
  EC50: > 350 µM (not active)

## O=C(Cc1ccc([N+](=O)[O-])cc1)N/N=C/c1ccc([N+](=O)[O-])o1
[9]
  CC50: > 20 µM (active)
BJ
  EC50: 15.6 µM (active)
[10]
  CC50: 6.26 µM (active)

## SC1=Nc2ccccc2C1
Hexokinase HKDC1
  EC50: 18 µM (active)

## NS(=O)(=O)c1ccc(NC(=O)COC(=O)c2ccc([N+](=O)[O-])s2)cc1
Caspase-6
  AC50: 3.33 µM (active)
[11]
  IC50: 25.1 µM (active)

## CCCCNc1cc(NC(C)=O)cc2cc(OC)c(OC)cc12
[12]
  IC50: > 99 µM (inactive)

Source: ChEMBL document CHEMBL1201862, “PubChem BioAssay data set” (2004)
